The values that follow come from US8501791B2, “1,2,4-thiadiazolium derivatives as melanocortin receptor modulators” (Ortho-McNeil Pharamaceutical, Inc., priority 2001, dated 2013).

Where “and” joins values, the source holds several entries; their conditions need not be identical. Identical values can stand only once.

Test [1] has as its target T1, melanocortin MC-4 receptor (Homo sapiens, UniProt P32245).
T1 construct: purchased Receptor Biology Inc
The test can be described thus: Melanocortin MC-4 Receptor Binding Assay (SPA). As to conditions: 125I-NDP-melanocyte stimulating hormone. Here is the method: Radioactive ligand ^125I-NDP-melanocyte stimulating hormone [NEN, 2000 Ci/mmol] was added to each well (48.54 per well, […] final concentration). The plate was then sealed and let stand for 16 hr at 25° C. NDP-Melanocyte stimulating hormone peptide and α-melanocyte stimulating hormone peptide [purchased from Palomar Research Inc, 1 μM] were used as reference inhibitor compounds to define non-specific binding (N). Total binding (T) was defined using 30% DMSO-50 mM HEPES, pH 7.4 buffer. Bound radioactivity for each well (Y), measured at counts per minute (cpm) was measured in a TopCount [Packard, Calif.]. Percent inhibition was calculated as: […]

Test [2] concerns human sebocytes. The test can be described thus: Sebaceous lipid synthesis by sebaceous cells (14C acetate, HPTLC). It is filed as cell-based. The note with it: seven day treatment. Here is the method:
Semiconfluent cultures of 3T3 mouse fibroblasts (Swiss Albino mouse, ATCC CCL-92) were treated with mitomycin C (4 μg/ml) for 3 hours, trypsinized and seeded at a density of 2.5×10^5/9.5 cm^2 tissue culture plate in Dulbeccos Minimal Essential Medium (DMEM) containing 10% Colorado Calf Serum, PNC (100 U/ml), STM (100 μg/ml), L glutamine (0.3 mg/ml), sodium pyruvate (1 mM) and nonessential amino acids (100 μM). The cells were incubated at 37° C. for 24 hours prior to their use as a feeder layer for sebocytes.
Human sebocytes were isolated from Dermatome shavings of postoperative pieces of human skin at 0.4-0.8 mm depths (this part of the skin was previously shown to be enriched in sebaceous glands). […] Cells so obtained were filtered through nylon mesh (100μ pore size), centrifuged at 750 RPM, re-suspended in GM and counted. […]
Hormones, mixture of hormones i.e. bovine pituitary extract or compounds to be tested were added to the culture at the beginning of phase III. […] This method relies on visualization of neutral lipids by Nile red and quantitation by reading of fluorescence at 535 nm excitation, 580 nm emission using a plate reader. The lipid synthesis was evaluated by radioactive labeling using ^14C acetate and quantified by Bio Rad Phosphoimager (Molecular Imager, FX) using 4.1 Software. […]

The subject of test [3] is human skin transplanted to the SCID mouse. The test can be described thus: Human skin-SCID mouse chimera model, sebum production. It is filed as in vivo, SCID mouse with human skin graft. From the text: Severe combined immunodeficient mice (SCID) provide an invaluable model for skin xenografting. These animals are devoid of both T and B cell immunity. Human skin grafts in SCID mice retain human cellular tissue components including skin immune cells, i.e. Langerhans cells, macrophages and lymphocytes and also part of the engrafted endothelium (Kaufman R., et al., Exp. Dermatol. 1993:2:209-216, 1993). These properties allow for the study of physiological and/or pathological responses of human skin cells to a test compound.
C.B-17 scid/scid mice (Taconic, Germantown, N.Y.) were used for grafting at 5-6 weeks of age. Full thickness human facial skin was shaved to ˜0.4 mm using a Forman Dermatome. The skin shavings were washed 3 times in antibiotics and antimycotics (penicillin, streptomycin, fungizone) (Life technologies) in Dulbecco's Modified Eagle Medium (DMEM, Life Technologies). Elliptical skin ˜2.0-2.5×1.0-1.5 was grafted onto the prepared graft bed and sutured using 4.0 silk. During surgical procedures the mice were anaesthetized using a mixture of Ketaset (0.16 mg/g body weight) and Rompun (8.0 μg/g body weight).
It is well accepted that the wound healing process of the transplanted skin in the SCID mouse takes one month, at which time the human skin can be used for experimental purposes. […] Maximum size of the glands was observed 3 month post transplantation. The glands retained their capability to produce human specific sebum and the glandular tissue expressed human specific markers including MC5-R. Since glands reached their maximum size at 2-3 month post transplantation the effects of inhibitors of sebum secretion was tested at this point.
Mice at 2-3 month post transplantation with human facial skin were used for the studies. The graft area was treated with the test compound at the desired concentration(s) dissolved in polyethylene glycol-ethanol (20 μl/2 cm^2). Controls were treated with vehicle alone. The test compounds were applied daily, excluding weekends. Sebum secretion was determined using Sebutape at 15 days and 30 days following treatment.
The termination of the experiment was determined by preliminary clinical evaluation of sebum production using SEBUTAPE. At this time human skin grafts were excised and representative samples were collected for histological evaluation. More particularly, 2 mm punch biopsies were prepared and used for evaluation of lipid synthesis and total lipid accumulation in the treated tissues.
The collected 2 mm punch biopsies were placed individually into 96 well plates in Krebs buffer and labeled with 10 μCi of ^14C acetate for 3 hours. Following this labeling period the samples were washed in medium and 5 biopsies pooled, weighed, and used for lipid extraction. The lipid extraction and analysis by HPTLC was the same as described for tissue culture derived cells. […]

The subject of test [4] is Food-Deprived Rats (MC-4). The test can be described thus: Rodent feeding: food intake in food-deprived rats (MC-4). It is filed as in vivo, rat. The note with it: 10 mg/kg, ip. Here is the method:
Male Long-Evans rats (180-200 grams) were housed individually and maintained on a once-a-day feeding schedule (i.e. 10 a.m. until 4 p.m.) for five days following quarantine to allow the animals to acclimate to feeding on powdered chow (#5002 PMI Certified Rodent Meal) during the allotted time. The chow was made available in an open jar, anchored in the cage by a wire, with a metal follower covering the food to minimize spillage. Water was available ad-libitum.
Animals were fasted for 18 hours prior to testing. At the end of the fasting period, animals were administered either a test compound or vehicle. Vehicle and test compound were administered either orally (5 mL/kg) 60 minutes prior to the experiment, subcutaneously (1 mL/kg) 30 minutes prior to the experiment, or intraperitoneally (1 mL/kg) 30 minutes prior to the experiment. Test compounds were administered orally as a suspension in aqueous 0.5% methylcellulose-0.4% Tween 80, or intraperitoneally as a solution or suspension in PEG 200; compound concentrations typically ranged from 1 mg/kg to 100 mg/kg, preferably from 10-30 mg/kg. Food intake was measured at 2, 4, and 6 hours after administration by weighing the special jar containing the food before the experiment and at the specified times. Upon completion of the experiment, all animals were given a one-week washout period before re-testing.

For test [5], the system named is facial nerve compression, whisker movement. The test can be described thus: In vivo facial nerve compression model. The arrangement: species or system rat. The note with it: positive control s.c., 70 ug/each 48 hr. From the text:
The ability of test compound to provide neuro-protective or neuro-regenerative effects was investigated in a facial nerve compression model. Facial nerve motor axons arise exclusively from neurons within the pons in a well-defined nucleus. Facial nerve compression results in retrograde reactions proximal to the lesion site and Wallerian degeneration at its distal part, which causes diminished whisker movement on the lesioned side. […] The right facial nerve was exposed and compressed with forceps for 30 sec at its exit from the stylomastoid foramen. The left facial nerve was sham-operated and served as an internal control. […] After recovery from anesthesia, the rats were randomly divided into groups for dosing with vehicle, αMSH or test compound, with 6 animals per group. αMSH (s.c., 70 ug/each 48 hr) was used as a positive control. Test compounds were dosed p.o. at 20 mg/kg bid for 14 days. Restoration of whisker movement was monitored daily after the operation using two criteria: (1) frequency of whisker movement on the lesioned side relative to the opposite side (sham-operated) which served as the baseline control (2) semi-quantitative measurements (0 to 4+) on strength of the whisker muscles, characterized based on observation of the percentage of moved whiskers, muscle tone of whisker muscles, and the position of the nose. For all observations, the experimental design was blind to the behavioral observer. […] The recovery rate of the whisker movement was expressed as percentage of its own internal control (sham-operated), as listed in Table 8.

The test system of test [6] is rabbit adipocytes. The note with it: read-out: EC50 lipolytic activity; cited from earlier work.
Where [7] appears, read: 30 Day Treatment, topical 0.01%.
Setting [8] is: 30 Day Treatment, topical 0.05%.
The mark [9] stands for this setting: human sebaceous lipids, 11 Day Treatment, topical 0.01%.
Setting [10] is: human sebaceous lipids, 11 Day Treatment, topical 0.1%.
Where [11] appears, read: human sebaceous lipids, 11 Day Treatment, topical 0.5%.

T1 sequence (P32245 whole entry): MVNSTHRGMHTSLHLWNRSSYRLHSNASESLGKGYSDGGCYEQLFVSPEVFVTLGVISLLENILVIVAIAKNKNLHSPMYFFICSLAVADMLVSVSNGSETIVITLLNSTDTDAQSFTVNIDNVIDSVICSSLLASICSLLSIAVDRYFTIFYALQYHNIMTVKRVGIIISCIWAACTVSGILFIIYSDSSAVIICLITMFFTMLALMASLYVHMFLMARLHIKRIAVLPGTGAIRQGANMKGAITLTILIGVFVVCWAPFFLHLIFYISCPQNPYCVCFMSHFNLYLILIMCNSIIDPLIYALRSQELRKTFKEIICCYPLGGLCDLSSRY

In test [1], `COc1ccccc1-[n+]1sc(Nc2ccc(Cl)cc2)nc1-c1ccc(C)cc1` [Compound 70] registered an IC50 of 566 nM. In other words, the sub-micromolar range.
With `COc1ccccc1-c1nc(Nc2ccccc2)s[n+]1-c1ccccc1OC.[Br-]` [Compound 74, 2-(2-methoxyphenyl)-3-(2-methoxyphenyl)-5-phenylamino-[1,2,4]-thiadiazol-2-ium], the “lipid synthesis, radioactively labeled lipids separated by HPTLC” value in test [2] was “inhibition of squalene, cholesterol esters and wax esters”. Besides, the “lipid granules in sebocyte cultures, visual” value in test [2] (stained cell cultures) is given as “complete disappearance of lipid granules”. In test [3] (setting [7]), the “% Inh @ 0.01% Cholesterol Ester, Lipid Accumulation” value worked out at 44%; the “% Inh @ 0.01% Cholesterol, Lipid Accumulation” value stood at 33%; the “% Inh @ 0.01% Cholesterol, Sebaceous Lipid Synthesis” value is reported as 33%; the “% Inh @ 0.01% Squaline, Lipid Accumulation” value is given as 82%. For the same molecule, in test [3] (setting [7]), the “% Inh @ 0.01% Squaline, Sebaceous Lipid Synthesis” value was determined as 80%; the “% Inh @ 0.01% Triglycerides, Lipid Accumulation” value came to 75%; the “% Inh @ 0.01% Triglycerides, Sebaceous Lipid Synthesis” value is 75%; the “% Inh @ 0.01% Wax Esters, Lipid Accumulation” value amounted to 86%. In test [3] (setting [7]), the “% Inh @ 0.01% Wax Esters, Sebaceous Lipid Synthesis” value was 86%. Also, in test [3] (setting [8]), the “% Inh @ 0.05% Cholesterol Ester, Lipid Accumulation” value is 21%; the “% Inh @ 0.05% Cholesterol, Lipid Accumulation” value amounted to 82%; the “% Inh @ 0.05% Cholesterol, Sebaceous Lipid Synthesis” value was found to be 82%; the “% Inh @ 0.05% Squaline, Lipid Accumulation” value amounted to 73%. In test [3] (setting [8]), the “% Inh @ 0.05% Squaline, Sebaceous Lipid Synthesis” value came out at 90%; the “% Inh @ 0.05% Triglycerides, Lipid Accumulation” value came to 90%; the “% Inh @ 0.05% Triglycerides, Sebaceous Lipid Synthesis” value is given as 90%; the “% Inh @ 0.05% Wax Esters, Lipid Accumulation” value is recorded as 93%. The “% Inh @ 0.05% Wax Esters, Sebaceous Lipid Synthesis” value in test [3] (setting [8]) was 93%. In addition, the “total sebaceous lipid accumulation and de novo synthesis of sebaceous lipids” value in test [3] (30 days of topical treatment with 0.05% and 0.01% solution) is “significantly decreased”. Further, in test [3] (setting [9]), the “% Inh @ 0.01% Squalene” value is 0%, the “% Inh @ 0.01% Triglycerides” value amounted to 0% and the “% Inh @ 0.01% W/E” value came to 25%. For the same molecule, in test [3] (setting [10]), the “% Inh @ 0.1% Squalene” value is reported as 70%, the “% Inh @ 0.1% Triglycerides” value was 50% and the “% Inh @ 0.1% W/E” value amounted to 80%. Also, in test [3] (setting [11]), the “% Inh @ 0.5% Squalene” value is listed as 0%, the “% Inh @ 0.5% Triglycerides” value worked out at 0% and the “% Inh @ 0.5% W/E” value amounted to 10%.
As for `c1ccc(CNc2nc(-c3ccccc3)[n+](-c3ccccc3)s2)cc1` [Compound 84], the “Change in Food Intake 2-6 hrs (%)” value in test [4] was −24.5% and −17.8%.
Consider α-MSH, for which the “Percent Recovery of whisker movement D9” value in test [5] (D9) worked out at 2.0 ± 2.8%. Moreover, the “Percent Recovery of whisker movement D10” value in test [5] (D10) amounted to 24.6 ± 15.8%. Also, the “Percent Recovery of whisker movement D11” value in test [5] (D11) was determined as 60.1 ± 19.3%. Further, in test [5] (D12), the “Percent Recovery of whisker movement D12” value came to 93.8 ± 14.0%. Further, in test [5] (D13), the “Percent Recovery of whisker movement D13” value is listed as 98.1 ± 5.3%. Moreover, the “Percent Recovery of whisker movement D14” value in test [5] (D14) is 100 ± 0.0%. In test [6], the EC50 was 3.7 nM.

As a reminder, the IC50 is the concentration at which inhibition is half-maximal. The low end stands for greater potency in that assay, the high end for weaker potency in that assay. As a reminder, the EC50 is the concentration at which the effect is half-maximal.
